Measurements from PubChem BioAssay AID2060910 (Molecular Pharmacology Branch, DTP, NCI, 2025).

System: 242566-281-R-J2-PDC complex spheroid viability
Assay: Anticancer human tumor 242566-281-R-J2-PDC patient-derived pancreatic carcinoma cell line growth inhibition [RAS]
Conditions: for IC50: curve of first compound; for viability, T/C: stronger effect = lower value
Method in brief: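 Agents were tested in combination matrices in half-log decrements from a top concentration at or near clinical Cmax (10 microM if undetermined). Targets were multi-cell spheroids of tumour lines plus HUVEC and MSC stromal cells.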

[1] = second compound 0.0316 µM, first compound 0.0316 µM
[2] = second compound 0.0316 µM, first compound 0.1 µM
[3] = second compound 0.0316 µM, first compound 0.316 µM
[4] = second compound 0.0316 µM, first compound 1 µM
[5] = second compound 0.0316 µM, first compound 3.16 µM
[6] = second compound 0.0316 µM, first compound 10 µM
[7] = second compound 0.1 µM, first compound 0.0316 µM
[8] = second compound 0.1 µM, first compound 0.1 µM
[9] = second compound 0.1 µM, first compound 0.316 µM
[10] = second compound 0.1 µM, first compound 1 µM
[11] = second compound 0.1 µM, first compound 3.16 µM
[12] = second compound 0.1 µM, first compound 10 µM
[13] = second compound 0.316 µM, first compound 0.0316 µM
[14] = second compound 0.316 µM, first compound 0.1 µM
[15] = second compound 0.316 µM, first compound 0.316 µM
[16] = second compound 0.316 µM, first compound 1 µM
[17] = second compound 0.316 µM, first compound 3.16 µM
[18] = second compound 0.316 µM, first compound 10 µM
[19] = second compound 1 µM, first compound 0.0316 µM
[20] = second compound 1 µM, first compound 0.1 µM
[21] = second compound 1 µM, first compound 0.316 µM
[22] = second compound 1 µM, first compound 1 µM
[23] = second compound 1 µM, first compound 3.16 µM
[24] = second compound 1 µM, first compound 10 µM
[25] = second compound 3.16 µM, first compound 0.0316 µM
[26] = second compound 3.16 µM, first compound 0.1 µM
[27] = second compound 3.16 µM, first compound 0.316 µM
[28] = second compound 3.16 µM, first compound 1 µM
[29] = second compound 3.16 µM, first compound 3.16 µM
[30] = second compound 3.16 µM, first compound 10 µM
[31] = second compound 10 µM, first compound 0.0316 µM
[32] = second compound 10 µM, first compound 0.1 µM
[33] = second compound 10 µM, first compound 0.316 µM
[34] = second compound 10 µM, first compound 1 µM
[35] = second compound 10 µM, first compound 3.16 µM
[36] = second compound 10 µM, first compound 10 µM
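Also: spheroids exposed to compound for 7 days before readout.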
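For viability, T/C in this document: 100% = DMSO vehicle control wells.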

## CCC(CC)c1cc(NC2CCC(N)C2)n2nccc2n1 (centres undefined) + C#Cc1c(F)ccc2cc(O)cc(-c3ncc4c(N5CC6CCC(C5)N6)nc(OCC56CCCN5CC(F)C6)nc4c3F)c12
Second compound 0.0316 µM
  IC50: 2610 nM
Second compound 0.1 µM
  IC50: 1890 nM
Second compound 0.316 µM
  IC50: 1450 nM
Second compound 1 µM
  IC50: 893 nM
Second compound 3.16 µM
  IC50: 1220 nM
Second compound 10 µM
  IC50: 1170 nM
[1]
  viability, T/C: 85.9%
[2]
  viability, T/C: 109%
[3]
  viability, T/C: 107%
[4]
  viability, T/C: 88.9%
[5]
  viability, T/C: 42.2%
[6]
  viability, T/C: 1.05%
[7]
  viability, T/C: 79.1%
[8]
  viability, T/C: 92.1%
[9]
  viability, T/C: 84.7%
[10]
  viability, T/C: 69.3%
[11]
  viability, T/C: 33.9%
[12]
  viability, T/C: 0.89%
[13]
  viability, T/C: 83.6%
[14]
  viability, T/C: 85.5%
[15]
  viability, T/C: 73.3%
[16]
  viability, T/C: 63.4%
[17]
  viability, T/C: 26.3%
[18]
  viability, T/C: 0.98%
[19]
  viability, T/C: 68.2%
[20]
  viability, T/C: 67.6%
[21]
  viability, T/C: 58.5%
[22]
  viability, T/C: 50.6%
[23]
  viability, T/C: 14.8%
[24]
  viability, T/C: 0.85%
[25]
  viability, T/C: 58%
[26]
  viability, T/C: 60.2%
[27]
  viability, T/C: 56.1%
[28]
  viability, T/C: 58.6%
[29]
  viability, T/C: 11.1%
[30]
  viability, T/C: 0.86%
[31]
  viability, T/C: 59.8%
[32]
  viability, T/C: 54.8%
[33]
  viability, T/C: 52.3%
[34]
  viability, T/C: 58.1%
[35]
  viability, T/C: 11.5%
[36]
  viability, T/C: 0.55%

## Cc1nc(N2CCC3(CC2)COC(C)C3N)c(CO)nc1Sc1ccnc(N)c1Cl (centres undefined) + C#Cc1c(F)ccc2cc(O)cc(-c3ncc4c(N5CC6CCC(C5)N6)nc(OCC56CCCN5CC(F)C6)nc4c3F)c12
Second compound 0.0316 µM
  IC50: 608 nM
Second compound 0.1 µM
  IC50: 336 nM
Second compound 0.316 µM
  IC50: 184 nM
Second compound 1 µM
  IC50: 61.2 nM
Second compound 3.16 µM
  IC50: < 31.6 nM
Second compound 10 µM
  IC50: < 31.6 nM
[1]
  viability, T/C: 69.6%
[2]
  viability, T/C: 81%
[3]
  viability, T/C: 62.2%
[4]
  viability, T/C: 40.9%
[5]
  viability, T/C: 37.8%
[6]
  viability, T/C: 43.5%
[7]
  viability, T/C: 80.3%
[8]
  viability, T/C: 65.8%
[9]
  viability, T/C: 51.1%
[10]
  viability, T/C: 43%
[11]
  viability, T/C: 34.5%
[12]
  viability, T/C: 43%
[13]
  viability, T/C: 69.9%
[14]
  viability, T/C: 54.3%
[15]
  viability, T/C: 47.1%
[16]
  viability, T/C: 38.9%
[17]
  viability, T/C: 37%
[18]
  viability, T/C: 36.5%
[19]
  viability, T/C: 58.1%
[20]
  viability, T/C: 45.8%
[21]
  viability, T/C: 36.6%
[22]
  viability, T/C: 34.6%
[23]
  viability, T/C: 31.2%
[24]
  viability, T/C: 41.1%
[25]
  viability, T/C: 48.4%
[26]
  viability, T/C: 49.9%
[27]
  viability, T/C: 40.9%
[28]
  viability, T/C: 35.1%
[29]
  viability, T/C: 42.8%
[30]
  viability, T/C: 44.5%
[31]
  viability, T/C: 50%
[32]
  viability, T/C: 46.6%
[33]
  viability, T/C: 39.4%
[34]
  viability, T/C: 42.9%
[35]
  viability, T/C: 41.4%
[36]
  viability, T/C: 38.4%
